Data on four molecules can be found in ChEMBL document CHEMBL2321853, “Novel acylethanolamide derivatives that modulate body weight through enhancement of hypothalamic pro-opiomelanocortin (POMC) and/or decreased neuropeptide Y (NPY)” (J Med Chem, 2013).

Experiment [1] has as its target T1, Transient receptor potential cation channel subfamily V member 1 (Homo sapiens, UniProt Q8NER1). Description: Activation of TRPV1 in HEK293 cells. In kind it is cell-based.
In experiment [2] the target is Transient receptor potential cation channel subfamily V member 1 (Rattus norvegicus) (UniProt O35433). Briefly: Activation of TRPV1 in rat blood vessels. Format: tissue-based. The settings on record: Blood vessel.
For experiment [3], the target named is T1, Transient receptor potential cation channel subfamily V member 1. Description: Agonist activity at TRPV1 receptor (unknown origin).
The subject of experiment [4] is Mus musculus. Description: Antiobesity activity in Sabra mouse assessed as reduction in body weight at 1 mg/kg, ip administered on day 0, 10, 11, 12, 24, 29 measured on day 39 relative to control. Details: scale not given: the % may be the effect or the level left. The settings on record: route intraperitoneal. In kind it is functional.
Experiment [5] relates to Mus musculus. Description: Antiobesity activity in Sabra mouse assessed as reduction in body weight at 1 mg/kg, ip administered on day 0, 10, 11, 12, 24, 29 measured on day 36 relative to control. To be noted: route intraperitoneal. Format: functional. More on the design: scale not given: the % may be the effect or the level left.
Experiment [6] relates to Mus musculus. Briefly: Antiobesity activity in Sabra mouse assessed as reduction in body weight at 1 mg/kg, ip administered on day 0, 10, 11, 12, 24, 29 measured on day 29 relative to control. Format: functional. More on the design: scale not given: the % may be the effect or the level left. The settings on record: route intraperitoneal.
In experiment [7] the test system is Mus musculus. Description: Antiobesity activity in Sabra mouse assessed as reduction in body weight at 1 mg/kg, ip administered on day 0, 10, 11, 12, 24, 29 measured on day 33 relative to control. The settings on record: route intraperitoneal. More on the design: scale not given: the % may be the effect or the level left. Format: functional.
Experiment [8] relates to Mus musculus. Briefly: Antiobesity activity in Sabra mouse assessed as reduction in body weight at 1 mg/kg, ip administered on day 0, 10, 11, 12, 24, 29 measured on day 26 relative to control. Format: functional. More on the design: scale not given: the % may be the effect or the level left. To be noted: route intraperitoneal.
Experiment [9] has as its system Mus musculus. Description: Antiobesity activity in Sabra mouse assessed as reduction in body weight at 1 mg/kg, ip administered on day 0, 10, 11, 12, 24, 29 measured on day 24 relative to control. Format: functional. More on the design: scale not given: the % may be the effect or the level left. To be noted: route intraperitoneal.
The test system of experiment [10] is Mus musculus. Description: Antiobesity activity in Sabra mouse assessed as reduction in body weight at 1 mg/kg, ip administered on day 0, 10, 11, 12, 24, 29 measured on day 22 relative to control. Format: functional. Details: scale not given: the % may be the effect or the level left. The settings on record: route intraperitoneal.
Experiment [11] has as its system Mus musculus. Description: Antiobesity activity in Sabra mouse assessed as reduction in body weight at 1 mg/kg, ip administered on day 0, 10, 11, 12, 24, 29 measured on day 19 relative to control. Format: functional. The settings on record: route intraperitoneal. More on the design: scale not given: the % may be the effect or the level left.
For experiment [12], the system named is Mus musculus. Description: Antiobesity activity in Sabra mouse assessed as reduction in body weight at 1 mg/kg, ip administered on day 0, 10, 11, 12, 24, 29 measured on day 12 relative to control. Format: functional. More on the design: scale not given: the % may be the effect or the level left. To be noted: route intraperitoneal.

Calls of active or inactive are those of the source. The rule behind the calls is not given here.

T1 sequence (Q8NER1 whole entry): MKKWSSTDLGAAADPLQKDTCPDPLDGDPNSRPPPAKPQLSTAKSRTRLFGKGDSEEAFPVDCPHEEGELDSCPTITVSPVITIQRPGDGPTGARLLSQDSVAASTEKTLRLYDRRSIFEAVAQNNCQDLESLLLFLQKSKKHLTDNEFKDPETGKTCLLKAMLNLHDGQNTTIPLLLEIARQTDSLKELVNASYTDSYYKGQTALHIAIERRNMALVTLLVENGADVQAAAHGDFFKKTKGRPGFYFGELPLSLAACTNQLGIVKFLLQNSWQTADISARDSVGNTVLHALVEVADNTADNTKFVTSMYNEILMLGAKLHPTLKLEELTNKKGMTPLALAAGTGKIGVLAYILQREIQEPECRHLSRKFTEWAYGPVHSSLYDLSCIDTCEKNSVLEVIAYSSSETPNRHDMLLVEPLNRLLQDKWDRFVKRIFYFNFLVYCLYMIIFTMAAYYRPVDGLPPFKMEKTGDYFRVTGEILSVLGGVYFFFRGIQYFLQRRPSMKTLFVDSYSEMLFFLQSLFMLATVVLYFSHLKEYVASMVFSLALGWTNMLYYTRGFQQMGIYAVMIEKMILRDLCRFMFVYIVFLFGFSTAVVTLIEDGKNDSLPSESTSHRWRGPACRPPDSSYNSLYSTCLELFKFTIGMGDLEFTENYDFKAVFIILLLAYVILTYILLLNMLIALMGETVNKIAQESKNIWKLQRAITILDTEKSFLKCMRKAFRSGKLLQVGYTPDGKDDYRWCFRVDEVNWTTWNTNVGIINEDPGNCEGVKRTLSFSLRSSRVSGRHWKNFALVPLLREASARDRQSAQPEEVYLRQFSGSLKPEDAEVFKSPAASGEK
Transient receptor potential cation channel subfamily V member 1 (Rattus norvegicus), sequence (O35433 whole entry): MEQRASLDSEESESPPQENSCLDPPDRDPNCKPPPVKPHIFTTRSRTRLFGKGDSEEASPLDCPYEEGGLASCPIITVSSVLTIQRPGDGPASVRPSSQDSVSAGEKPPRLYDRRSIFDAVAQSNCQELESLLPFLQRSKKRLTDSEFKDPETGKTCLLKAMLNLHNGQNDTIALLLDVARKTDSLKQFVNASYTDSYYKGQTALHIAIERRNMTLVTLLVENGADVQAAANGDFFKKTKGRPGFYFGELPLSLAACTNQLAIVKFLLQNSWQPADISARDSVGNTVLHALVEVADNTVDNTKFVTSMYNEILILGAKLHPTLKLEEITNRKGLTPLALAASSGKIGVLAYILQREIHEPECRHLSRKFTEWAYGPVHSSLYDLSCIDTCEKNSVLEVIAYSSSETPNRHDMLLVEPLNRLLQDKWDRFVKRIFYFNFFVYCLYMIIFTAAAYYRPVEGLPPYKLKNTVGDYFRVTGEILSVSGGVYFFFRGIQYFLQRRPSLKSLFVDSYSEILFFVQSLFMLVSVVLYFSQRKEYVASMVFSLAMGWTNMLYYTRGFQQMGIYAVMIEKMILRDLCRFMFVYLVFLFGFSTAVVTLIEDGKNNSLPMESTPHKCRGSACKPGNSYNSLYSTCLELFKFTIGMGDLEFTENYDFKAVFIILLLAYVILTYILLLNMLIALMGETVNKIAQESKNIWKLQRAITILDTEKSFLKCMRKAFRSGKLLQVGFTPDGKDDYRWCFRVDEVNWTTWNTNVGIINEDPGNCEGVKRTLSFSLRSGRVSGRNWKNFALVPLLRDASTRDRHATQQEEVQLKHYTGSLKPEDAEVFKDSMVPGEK

As for `CCCCCCCCCCCCCCCC(=O)NCCO`, the outcome in [1] and in experiment [2] was inactive.

In experiment [3], `CCCCC/C=C\C/C=C\C/C=C\C/C=C\CCCC(=O)NCCO` [ANANDAMIDE] displayed an EC50 of 0.0158 µM.

In experiment [3], `CCCCC/C=C\C/C=C\CCCCCCCC(=O)NCCO` [LINOLEOYLETHANOLAMIDE] registered a concentration for a half-maximal effect (EC50) of 0.63 µM.

`CCCCCCCC/C=C\CCCCCCCC(=O)N[C@@H](C)CO`: the Activity in experiment [4] is -3.58%; in [5], -2.56%; in experiment [6], -3.66%; in experiment [7], -1.63%; in [8] it was -0.5%; in experiment [9] it was -1.57%. Further, the Activity in experiment [10] is listed as -2.24%; in experiment [11] it was -2.24%; in experiment [12], -1.8%.

A word on the EC50: it is the concentration at which the effect is half-maximal.
